Results published in patent US8501695B2, “Tissue kallikrein for the treatment of diseases associated with amyloid protein” (DiaMedica, Inc., priority 2007, dated 2013).

Tests used:
[1] = test system: rat mixed cortical cultures (RMCC); assay: Aβ1-42 toxicity in rat mixed cortical cultures, LDH measurement; type: cell-based; details: for LDH release following Aβ1-42 insult: study arm A, B or C
Procedure: (§1) Whether pre-treatment with tissue kallikrein protects rat mixed cortical cultures against exposure to human amyloid beta peptide (Aβ1-42) was investigated. Cell death was analyzed by LDH-release, an indication of necrosis, and cell viability was also analyzed by neuronal cell count. First (Study Arm A), tissue kallikrein was added to the cells only prior to the Aβ1-42 insult (at −24 h and at −30 min). Whereas in the second part (Study Arm B), tissue kallikrein was added to the cells prior to (−30 min) and also at +24 h after the Aβ1-42 insult. At the +24 h time point, cell culture media were not changed (tissue kallikrein or corresponding amount of vehicle was added to the wells), whereas at −24 h and −30 min time point cell culture media were changed.
(§2) […] Cell Culture. Mixed cortical cultures were prepared from E18 Wistar rat embryos (National Animal Center, Kuopio, Finland). The cortices were dissected out, and the tissue cut to small pieces. The cells were separated by 15-min incubation with DNase and papain. The cells were collected by centrifugation (1500 rpm, 5 min). The tissue was triturated with a pipette and the cells were plated on poly-L-lysine-coated 48-well plates, 300,000 cells/cm^2, in MEM (2 g/L glucose) supplemented with 2 mM glutamine, 0.1 μg/ml gentamicin, 10% heat-inactivated fetal bovine serum (FBS-HI) and 10% heat-inactivated horse serum (HS-HI). After 3-4 h, the media were changed to MEM (2 g/L glucose) supplemented with 2 mM glutamine, 0.1 μg/ml gentamicin, 5% HS-HI. After three days in vitro, media containing MEM (2 g/L glucose) supplemented with glutamine, gentamicin, and 5% of both sera were changed to the cells. On day 6 in vitro, the unwanted cell division was inhibited by adding cytosine arabinoside (10 μM final concentration) for 24 h. The cultures were refed with MEM (2 g/L glucose) supplemented with glutamine, gentamicin, and 5% HS-HI before experiments.
(§3) Aβ1-42 Exposure. Tissue kallikrein (SEQ ID NO:1) was dissolved and further diluted in MEM supplemented with glucose, glutamine, gentamicin, and 5% HS-HI. As a control for total neuronal death, 300 μM N-methyl-D-aspartic acid (NMDA) for 48 h was used, and 10 μM Aβ1-42 for 48 h was used to induce approximately 30-50% cell death. Wells treated with media only served as 0-control. Tissue kallikrein or vehicle was pipetted to the cells −24 h and −30 min before adding 10 μM Aβ1-42 (final concentration). Tissue kallikrein or vehicle was again pipetted to the cells at +24 h after exposure.
LDH Measurement. After 48 h, the culture media of all wells were collected, and possible cell debris was removed by centrifugation (13,000 rpm for 3 min). A 100 μl aliquot was pipetted into a microtiter plate as duplicates, and equal amount of LDH reagent was pipetted to the wells. The absorbance at 340 nm was measured immediately using a 3 min kinetic measurement protocol in Multiskan ELISA reader (Labsystems, Finland). The change in absorbance/min was determined, which was directly proportional to the released LDH. The remaining supernatant (50 μl) was snap-frozen in dry ice for storage.
Data Analysis. The number of wells per compound concentration used was 6 (n=6). Five concentrations of Tissue kallikrein were studied (0.001, 0.01, 0.1, 1, 10 μg/ml) in both study arms. Statistical analysis was performed using StatsDirect statistical software. The values were analyzed by one-way ANOVA followed by Dunnet's test (comparison to the vehicle-treated group). Results are presented as mean±standard deviation (SD) and differences are considered to be statistically significant at the P<0.05 level.

[2] = test system: rat mixed cortical cultures (RMCC); assay: Aβ1-42 toxicity in rat mixed cortical cultures, neuronal survival (NeuN cell count); type: cell-based; details: 1 nM, 5 nM, 10 nM, 50 nM and 100 nM; study arm A, B or C
Procedure: as §1, §2, §3
Immunocytochemistry for Neuronal Survival. For neuronal counts, the cultures were fixed with 4% paraformaldehyde in 0.01 M PBS for 30 min and washed twice with PBS. The fixed cells were first permeabilized, and non-specific binding blocked by 30 min incubation with blocking buffer containing 1% bovine serum albumin and 0.3% Triton® X-100 in PBS. Anti-neuronal nuclei antibody (anti-NeuN, dilution 1:500, Chemicon, Temecula, Calif.) was used as the primary antibody. The cells were incubated with the primary antibody for 48 h, followed by incubation with a biotinylated secondary antibody (1:200, Vector Labs) for 2 h, and the avidin-biotin-peroxidase complex (ABC-reagent, 1:200, Vector ABC Elite Kit, Vector Labs) for 2 h. The positive cells were visualized using Ni-enhanced DAB as a substrate (DAB Substrate kit, Vector Labs). The NeuN immunopositive neurons were counted using a light microscope. Altogether, 2 fields of each well were counted. The results are shown as percent viable neurons.
Data Analysis. The number of wells per compound concentration used was 6 (n=6). […] Statistical analysis was performed using StatsDirect statistical software. The values were analyzed by one-way ANOVA followed by Dunnet's test (comparison to the vehicle-treated group). Results are presented as mean±standard deviation (SD) and differences are considered to be statistically significant at the P<0.05 level.

lysyl-bradykinin [kallidin, reference compound]
LDH release following Aβ1-42 insult ([1]; 1 nM, 5 nM, 10 nM, 50 nM and 100 nM): did not alter LDH release
LDH release following Aβ1-42 insult ([1]; 1 μM and 10 μM): did alter LDH release
cell death following Aβ1-42 insult (LDH) ([1]; 100 μM, compared to Aβ1-42 insult alone): significantly potentated cell death
cell counts (survival) following Aβ1-42 insult [2]: did not affect cell counts
